Data: patent publication US12171743B2, “Forms of aticaprant” (Janssen Pharmaceuticals, Inc., priority 2022, dated 2024)
“Also recorded” adds a separate entry of the source.

Assays:
Assay type in all cases: physicochemical
[1] = Gravimetric vapor sorption (GVS)
Procedure: Sorption isotherms were obtained using a SMS DVS Intrinsic moisture sorption analyzer, controlled by DVS Intrinsic Control software. The sample temperature was maintained at 25° C. by the instrument controls. The humidity was controlled by mixing streams of dry and wet nitrogen, with a total flow rate of 200 mL/min. The relative humidity was measured by a calibrated Rotronic probe (dynamic range of 1.0-100% RH), located near the sample. The weight change, (mass relaxation) of the sample as a function of % RH was constantly monitored by a microbalance (accuracy ±0.005 mg).
Typically, 5-30 mg of sample was placed in a tared mesh stainless steel basket under ambient conditions. The sample was loaded and unloaded at 40% RH and 25° C. (typical room conditions). A moisture sorption isotherm was performed as outlined below (2 scans per complete cycle). The standard isotherm was performed at 25° C. at 10% RH intervals over a 0-90% RH range. Typically, a double cycle (4 scans) was carried out. Data analysis was carried out within Microsoft Excel using the DVS Analysis Suite. See, Table 15.
The sample was recovered after completion of the isotherm and re-analyzed by XRPD.

[2] = Static storage at elevated temperature and humidity, form by XRPD; conditions: for form after static storage: (10 days), Form II prepared at 1 g scale; for form (XRPD) after static storage: 1 week
Procedure: After static storage of amorphous aticaprant at 40° C./75% RH for 1 week, Form II was obtained.
Fresh amorphous aticaprant was prepared for static storage at 40° C./75% RH for 1 week. Both solvents produced amorphous aticaprant. Tg was determined to be 45.5° C. by mDSC. See, Table 19 for the characterization of amorphous aticaprant.
Form I was obtained in the screens from ethyl acetate and MEK (both through solvent evaporation). It also was obtained from addition of heptane antisolvent to solutions in ethyl acetate and diethyl ether. The sample from the solubility assessment in ethyl acetate was isolated and characterized by XRPD, ^1H NMR, and DSC (FIG. 7), and static storage at elevated temperature and humidity.

[3] = Competitive slurries of Forms I, II and III (thermodynamic stability)
Procedure: Competitive slurrying experiments were carried out with Form I, Form II and Form III to determine the relative order of stability. Slurrying experiments were carried out in six different solvent systems 5 and 50° C.
Saturated solutions of Form III were prepared in different solvent systems. See, Table 32. Each vial was filled with the relevant solvent (1.5 mL in each) and placed to equilibrate at the relevant temperature. After this time, small spatulas of the solid were added until the solid no longer dissolved. Samples were left to stir at 5° C. and 50° C. for ca. 2 weeks or longer as noted.
Form III (180 mg) and Form II (180 mg) were combined into a 4 mL vial. The sample was placed on a turbula blender for 30 mins, after which a small sample was taken and analyzed by XRPD to confirm a mixture. 10 mg of this mixture was weighed and a mixture of Form I and Form II was instead used as seeds in the competitive slurries. To each vial was added the mixture of Forms I and II (7 mg). See, Table 33.

[4] = Solubility observation of Form III in solvents
Procedure: Form III of aticaprant (20 mg) was weighed into 3 HPLC vials. Each vial was treated with 10 vol (250 μL) of the relevant solvent at 25° C. and shaken. The sample in t-BuOH was placed at 90° C. for a few seconds, where a solution was obtained. The solutions were filtered using a 0.45 μm PTFE membrane Acrodisc filter, before being flash frozen in an acetone/dry ice bath for 5 minutes. The samples were then freeze-dried overnight. The resulting solids were characterized by XRPD.
[…] Form III of aticaprant (20 mg) was dispensed into amber HPLC vials (×49) with a magnetic stirrer bar. Each vial was treated with the relevant solvent (5 vol) at RT and stirred at 300 rpm for 10 mins. If suspensions were still observed, increasing volumes of the solvent were added until the material fully dissolved or until a maximum of 80 vol had been used (Table 20). All samples were heated to 50° C. and held for 1 hour. The samples were then cooled to 5° C. at a rate of 0.1° C./min and left to stir overnight. Any suspensions remaining at this point were subjected to maturation at RT/50° C. for 2 weeks.

Cc1cc(C)cc(C2CCCN2Cc2ccc(Oc3ccc(C(N)=O)cc3F)cc2)c1 (centres unmarked) [Form II]
GVS hysteresis [1]: slight hysteresis | XRPD / form after GVS [1]: XRPD post-GVS: Form II | hygroscopicity (in words) [1]: slightly hygroscopic; also recorded: Sample exhibits low hygroscopicity | stability after static storage at elevated temperature and humidity (in words) [2]: remained stable | form after static storage ([2]; 25° C./97% RH): Form II | form after static storage ([2]; 40° C./75% RH): Form II

Cc1cc(C)cc(C2CCCN2Cc2ccc(Oc3ccc(C(N)=O)cc3F)cc2)c1 (centres unmarked) [Form III]
GVS hysteresis [1]: No hysteresis observed | XRPD / form after GVS [1]: XRPD unchanged after GVS | GVS max uptake ([1]; at 90% RH, 25° C.): 0.4% max uptake at 90% RH | relative stability among Forms I, II and III (in words) [3]: most stable form | solubility observation ([4]; 70% THF/H2O, 250 μL/10 vol, RT): Soluble, biphasic | solubility observation ([4]; t-BuOH at 90° C.): (soluble at 90° C.) | solubility observation ([4]; t-BuOH, 250 μL/10 vol, 25° C.): Insoluble

Cc1cc(C)cc(C2CCCN2Cc2ccc(Oc3ccc(C(N)=O)cc3F)cc2)c1 (centres unmarked) [Form I]
stability after static storage at elevated temperature and humidity (in words) [2]: remains stable | form (XRPD) after static storage ([2]; 40° C./75% RH): Form I

Cc1cc(C)cc(C2CCCN2Cc2ccc(Oc3ccc(C(N)=O)cc3F)cc2)c1 (centres unmarked) [amorphous aticaprant]
form (XRPD) after static storage ([2]; 40° C./75% RH): Form II | form (XRPD) after static storage ([2]; 40° C./75% RH, listed as amorphous Aticaprant): Form II
